row,SMILES,melting point [°C]
1,NC(=O)N(CC(=O)OCCCCCCOC(=O)CN(C(N)=O)c1ccccc1)c1ccccc1,131 to 140
2,O=C(O)CNC(=O)CCCc1ccccc1,99 to 101
3,CC(CO)NCc1ccc(-c2cc3ncnc(Nc4ccc5[nH]ccc5c4)c3s2)cc1 (configuration not stated),160 to 175
4,CCSc1nnc(-c2ccccc2)n1Cc1ccc([N+](=O)[O-])cc1,108
5,CC(C)c1nc(CCCO)n(C)c1Sc1cc(Cl)cc(Cl)c1,124 to 125
6,CC(C)C(=O)O[C@H]1[C@H](C)OC(=O)[C@@H](NC(=O)OC(C)(C)C)COC(=O)[C@@H]1CSc1ccccn1,54 to 58
7,CCOC(=O)COc1ccc(NS(C)(=O)=O)cc1OC,118 to 119
8,N#Cc1cc(C(F)(F)F)[nH]c1-c1sc(Cl)c(Cl)c1Cl,220 to 221
9,CC(C)(C)C(=O)Nc1ccccc1CC(O)c1ccccc1 (configuration not stated),183 to 184
10,COC(=O)c1ccc2c(c1)Oc1ccc(C(=O)OC)cc1C2(C)C,145 to 147
11,CON(C)C(=O)c1ccc(-c2cc(C(C)(C)C)c(O)c(C(C)(C)C)c2)cc1,176 to 177
12,CN1CC(CN2CC(=O)NC2=O)CC2c3cccc4c3c(cn4C)CC21 (configuration not stated),292 to 294
13,Cc1ccc(-n2c(-c3ccccc3)c(Br)c(Br)c2-c2ccccc2)cc1,227 to 228
14,CC(C)Oc1ccc(C(=O)[NH+]([O-])c2c(Cl)cncc2Cl)c2c1oc1ccccc12 (configuration not stated),247 to 248
15,N#Cc1cnc2ccsc2c1Cl,105 to 107
16,CC(n1ncnn1)C(O)(c1ccc(OC(F)(F)F)cc1)c1ccc(OC(F)(F)F)cc1 (configuration not stated),55 to 58
17,N#Cc1ccnc(N2CCOCC2)c1,135 to 136
18,COC(=O)C[C@H]1[C@H](C(=O)N(C)OC)C(=O)N1C(c1ccccc1)(c1ccccc1)c1ccccc1,168 to 169
19,COc1ccc2oc(C(N)=O)c(OCc3ccccc3)c2c1,70 to 72
20,O=C(CCl)c1ccc2c(c1)Cc1cc(C(=O)CCl)ccc1O2,200 to 201

# Now from value to molecule:
row,melting point [°C],SMILES
1,188 to 190,CC(C)(C)[Si](C)(C)Oc1ccc2c(c1)OC(O)c1c-2ccc2cc(O[Si](C)(C)C(C)(C)C)ccc12 (configuration not stated)
2,157 to 159,CCc1cn(C2CC(O)C(CCC(=O)C(C)Oc3ccc(Cl)cc3Cl)O2)c(=O)[nH]c1=O (mixture of isomers)
3,69,O=C1CC2(CCCC2)CC(=O)N1CCCCOc1cccc2c1SCCC2
4,248 to 251,COCCn1cc2c(C3C(=O)Nc4ccc(Br)cc43)nc(NCCC3CCNCC3)nc2n1 (configuration not stated)
5,202 to 204,CC(=O)Nc1nc(-c2ccccc2)c(-c2ccc(=O)n(C(C)C)n2)s1
6,323 to 324,Cc1cnc2c(cc(C(N)=O)c3nncc32)c(-c2ccccc2F)n1
7,215 to 217,Nc1ncnc2c1ncn2C1CC(C=Cc2ccccc2)C(CO)O1 (configuration not stated)
8,234 to 235,CCCCN(C(=O)c1cnc(N2CCNC2=O)nc1N)c1cccc(C(F)(F)F)c1
9,185 to 186,Cc1nc(N2CCN(CCCC(F)(F)F)C2=O)sc1-c1cc[nH]n1
10,55 to 65,CCN(Cc1cc(-c2ncco2)ccc1-c1ccccc1S(=O)(=O)Nc1onc(C)c1C)CC(F)(F)F
11,144 to 146,CCOC(=O)c1cc(C)c(Cl)nc1Nc1ccc(I)cc1
12,271 to 273,CC(c1oc2ccccc2c(=O)c1-c1cccc(F)c1)n1nc(-c2cc(O)cc(F)c2)c2c(N)ncnc21 (configuration not stated)
13,180 to 181,CCN(CC)c1ccc(CNc2cc(C(=O)Nc3ccccc3)ccc2OC)cc1
14,246 to 248,COc1ccc(-c2[nH]c3ccc(Cl)cc3c2-c2ccc(S(C)(=O)=O)cc2)cc1
15,201,COC(=O)NN=C1C(=O)Nc2ccc(C3=NNC(=O)SC3C)cc21 (configuration not stated)
16,181 to 183,COc1ccc(-n2nc(Sc3cccc4ccccc34)c(C)c(C#N)c2=O)cc1
17,208,Cc1noc2ncnc(NC3Cc4ccccc4C3)c12

# From a melting point compilation (Tetko et al.; mined from patent text by program, amines drawn as free bases though some values may be those of a salt)
